Laboratory results reported in PubChem BioAssay AID2060902 (Molecular Pharmacology Branch, DTP, NCI, 2025).

Test system: 485368-065-R3-J5-PDC spheroids with HUVEC/MSC, viability
Test: Anticancer human tumor 485368-065-R3-J5-PDC patient-derived pancreatic carcinoma cell line growth inhibition [RAS]
Conditions: for IC50: curve of first compound; for viability, T/C: stronger effect = lower value
Source text: RAS pathway inhibitors in Combinations in Complex Spheroids
A high-throughput screen of multi-cell type tumor spheroids was designed to identify active combinations of RAS pathway inhibitors and targeted small molecules. Complex spheroids include a stromal component modeled by human endothelial cells (HUVEC) and fibroblasts modeled by human mesenchymal stem cells (MSCs). The concentration ranges selected for each drug and investigational agent were based upon clinically achievable concentrations if the clinical Cmax of the agent was known.
Compounds. The drugs and investigational agents: abemaciclib (NSC768073), cobimetinib (NSC768068), divarasib (GDC6063, NSC841802), docetaxel (NSC628503), GDC-1971 (RLY-1971, NSC841576), gemcitabine (NSC613327), inavolisib (NSC800729), ipatasertib (NSC767898), KB-0742 (NSC834161), MRTX-1133 (NSC836407), osimertinib (NSC779217), RMC-4630 (NSC839698), RMC-6236 (NSC851965), RMC-6291 (NSC852671), Ro-3306 (NSC812927), sapanisertib (NSC764658), SN-38 (NSC673596), staurosporine (NSC755774), SY5609 (NSC837396), and tovorafenib (DAY101, NSC766906), were obtained from the National Cancer Institute (NCI) Developmental Therapeutics Program Chemical Repository. The FDA-approved anticancer drug set is available from the NCI Developmental Therapeutics Program. […] The stock solutions were prepared in dimethyl sulfoxide (DMSO, Sigma-Aldrich, St. Louis, MO, cat. D2650) at 800-fold the tested concentration and stored at -70 degrees C prior to their use. All drugs and investigational agents were tested over a range starting from a high concentration at or near the clinical Cmax and decreasing in half-log increments. If the clinical Cmax for an agent had not been determined, the highest concentration tested was 10 microM.
Cell Culture. All cells were maintained in an incubator at 37 degrees C and 5% CO2 with 95% humidity. The PDC lines were cultured according to standard operating procedures established by the NCI PDMR. All PDCs were thawed and cultured in Matrigel-coated flasks prepared with a working solution of 1X Ham's F-12 nutrient mix, without supplementation (Invitrogen, Waltham, MA, cat. 11765054), 100 U/mL penicillin-streptomycin (Invitrogen, cat. 15140122), and 2.5% Matrigel (Corning Inc., Corning, NY, cat. 354248) for the first three passages. The 362531-283-R-J2-PDC and 782815-120-R-J1-PDC lines were cultured in 6C/Colon 1B media, which includes advanced DMEM/F-12 (Thermo Fisher Scientific, cat. 12634028), 10 mM HEPES (Thermo Fisher Scientific, cat. 15630080), 1X GlutaMAX supplement (Thermo Fisher Scientific, cat. 35050061), 0.1 mg/mL primocin (InvivoGen, San Diego, CA, cat. ant-pm-2), 10% defined fetal bovine serum, heat inactivated (HyClone Laboratories Inc., Logan, UT, cat. SH30070.03HI), 50% L-WRN conditioned media (ATCC, cat. CRL-3276), 1.25 mM N-Acetyl-L-cysteine (Sigma-Aldrich, cat. A9165), 10 mM nicotinamide (Sigma-Aldrich, cat. N0636), 1X B-27 supplement (Thermo Fisher Scientific, cat. 17504044), 1X N-2 supplement (Thermo Fisher Scientific, cat. 17502048), 50 ng/mL human EGF (Thermo Fisher Scientific, cat. PHG0311), and 10 microM Y-27632 dihydrochloride (Tocris Bioscience, cat. 1254). The K12877-001-R-J1-PDC line was cultured in 6I media, which includes all 6C/Colon 1B media plus 10 ng/mL human FGF-10 (PeproTech, cat. 100-26), 1 ng/mL human FGF-2 (PeproTech, cat. 100-18B), 1 µM prostaglandin E2 (Tocris Bioscience, cat. 2296), […] hydrocortisone (Sigma-Aldrich, cat. H4001), and […] bovine insulin (Sigma-Aldrich, cat. I6634). The K86415-001-R-J1-PDC line was cultured in 6D media, which includes all 6C/Colon 1B media components minus the L-WRN conditioned media. The 485176-168-R4-J1-PDC was cultured in PANC media, which includes all 6C/Colon 1B media plus 100 ng/mL human FGF-10 (PeproTech, cat. 100-26), 500 nM SB-431542 (Selleckchem, cat. S1067), and 10 nM gastrin (Tocris Bioscience, cat. 3006). […]

[1] = second compound 0.0316 µM, first compound 0.000316 µM
[2] = second compound 0.0316 µM, first compound 0.001 µM
[3] = second compound 0.0316 µM, first compound 0.00316 µM
[4] = second compound 0.0316 µM, first compound 0.01 µM
[5] = second compound 0.0316 µM, first compound 0.0316 µM
[6] = second compound 0.0316 µM, first compound 0.1 µM
[7] = second compound 0.1 µM, first compound 0.000316 µM
[8] = second compound 0.1 µM, first compound 0.001 µM
[9] = second compound 0.1 µM, first compound 0.00316 µM
[10] = second compound 0.1 µM, first compound 0.01 µM
[11] = second compound 0.1 µM, first compound 0.0316 µM
[12] = second compound 0.1 µM, first compound 0.1 µM
[13] = second compound 0.316 µM, first compound 0.000316 µM
[14] = second compound 0.316 µM, first compound 0.001 µM
[15] = second compound 0.316 µM, first compound 0.00316 µM
[16] = second compound 0.316 µM, first compound 0.01 µM
[17] = second compound 0.316 µM, first compound 0.0316 µM
[18] = second compound 0.316 µM, first compound 0.1 µM
[19] = second compound 1 µM, first compound 0.000316 µM
[20] = second compound 1 µM, first compound 0.001 µM
[21] = second compound 1 µM, first compound 0.00316 µM
[22] = second compound 1 µM, first compound 0.01 µM
[23] = second compound 1 µM, first compound 0.0316 µM
[24] = second compound 1 µM, first compound 0.1 µM
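Note: spheroids exposed to agents for seven days before readout.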

CC(C)n1nc(-c2ccc3oc(N)nc3c2)c2c(N)ncnc21 + C#Cc1c(F)ccc2cc(O)cc(-c3ncc4c(N5CC6CCC(C5)N6)nc(OCC56CCCN5CC(F)C6)nc4c3F)c12
IC50 (second compound 0.0316 µM): 19.2 nM
IC50 (second compound 0.1 µM): 18.6 nM
IC50 (second compound 0.316 µM): 16.8 nM
IC50 (second compound 1 µM): 17.3 nM
IC50 (second compound 3.16 µM): 11.5 nM
IC50 (second compound 10 µM): < 0.316 nM
viability, T/C [1]: 96.7%
viability, T/C [2]: 97%
viability, T/C [3]: 76.4%
viability, T/C [4]: 65.5%
viability, T/C [5]: 39.3%
viability, T/C [6]: 18.7%
viability, T/C [7]: 97.3%
viability, T/C [8]: 90.6%
viability, T/C [9]: 88.9%
viability, T/C [10]: 65.7%
viability, T/C [11]: 36.4%
viability, T/C [12]: 18.7%
viability, T/C [13]: 99.8%
viability, T/C [14]: 99.4%
viability, T/C [15]: 83.6%
viability, T/C [16]: 61.8%
viability, T/C [17]: 36.1%
viability, T/C [18]: 18.7%
viability, T/C [19]: 101%
viability, T/C [20]: 96.8%
viability, T/C [21]: 82.8%
viability, T/C [22]: 63.6%
viability, T/C [23]: 35.7%
viability, T/C [24]: 17.8%
viability, T/C (second compound 3.16 µM, first compound 0.000316 µM): 71.3%
viability, T/C (second compound 3.16 µM, first compound 0.001 µM): 76.5%
viability, T/C (second compound 3.16 µM, first compound 0.00316 µM): 67.2%
viability, T/C (second compound 3.16 µM, first compound 0.01 µM): 52.9%
viability, T/C (second compound 3.16 µM, first compound 0.0316 µM): 28.9%
viability, T/C (second compound 3.16 µM, first compound 0.1 µM): 14.8%
viability, T/C (second compound 10 µM, first compound 0.000316 µM): 47.3%
viability, T/C (second compound 10 µM, first compound 0.001 µM): 36%
viability, T/C (second compound 10 µM, first compound 0.00316 µM): 32.2%
viability, T/C (second compound 10 µM, first compound 0.01 µM): 31.1%
viability, T/C (second compound 10 µM, first compound 0.0316 µM): 18.1%
viability, T/C (second compound 10 µM, first compound 0.1 µM): 13.1%

CC(C)n1nc(-c2ccc3oc(N)nc3c2)c2c(N)ncnc21 + C=CC(=O)N1CCN(c2nc(OCC3CCCN3C)nc3c(F)c(-c4nc(N)cc(C)c4C(F)(F)F)c(Cl)cc23)C(C)C1
IC50 (second compound 0.00316 µM): 14 nM
IC50 (second compound 0.01 µM): 14.6 nM
IC50 (second compound 0.0316 µM): 16.9 nM
IC50 (second compound 0.1 µM): 19.6 nM
IC50 (second compound 0.316 µM): 16.9 nM
IC50 (second compound 1 µM): 21.7 nM
viability, T/C (second compound 0.00316 µM, first compound 0.000316 µM): 106%
viability, T/C (second compound 0.00316 µM, first compound 0.001 µM): 99.4%
viability, T/C (second compound 0.00316 µM, first compound 0.00316 µM): 77.1%
viability, T/C (second compound 0.00316 µM, first compound 0.01 µM): 56%
viability, T/C (second compound 0.00316 µM, first compound 0.0316 µM): 35.6%
viability, T/C (second compound 0.00316 µM, first compound 0.1 µM): 16.1%
viability, T/C (second compound 0.01 µM, first compound 0.000316 µM): 104%
viability, T/C (second compound 0.01 µM, first compound 0.001 µM): 90.4%
viability, T/C (second compound 0.01 µM, first compound 0.00316 µM): 81.4%
viability, T/C (second compound 0.01 µM, first compound 0.01 µM): 53.6%
viability, T/C (second compound 0.01 µM, first compound 0.0316 µM): 37.2%
viability, T/C (second compound 0.01 µM, first compound 0.1 µM): 15.3%
viability, T/C [1]: 97.2%
viability, T/C [2]: 95.8%
viability, T/C [3]: 84.7%
viability, T/C [4]: 60.9%
viability, T/C [5]: 36.5%
viability, T/C [6]: 16.6%
viability, T/C [7]: 105%
viability, T/C [8]: 90.9%
viability, T/C [9]: 96.3%
viability, T/C [10]: 73.9%
viability, T/C [11]: 32.8%
viability, T/C [12]: 15.8%
viability, T/C [13]: 105%
viability, T/C [14]: 99.8%
viability, T/C [15]: 83.3%
viability, T/C [16]: 60.1%
viability, T/C [17]: 38%
viability, T/C [18]: 19.6%
viability, T/C [19]: 100%
viability, T/C [20]: 87.8%
viability, T/C [21]: 84.1%
viability, T/C [22]: 67%
viability, T/C [23]: 41%
viability, T/C [24]: 16.1%
